Source: the NIST ThermoML archive (doi:10.1021/je800150h)

Assay: mn = molality of the nth substance listed, in mol/kg
Conditions: 101 kPa, Liquid; for electrical conductivity: CyberScan CON500 conductivity meter

[Cl-].[Li+] [lithium chloride] + O
Conditions	electrical conductivity [S/m]	mass density [kg/m3]	viscosity [mPa·s]
268.1 K, m1 = 0.5	–	1013.4	2.273
268.1 K, m1 = 1	–	1024.4	2.554
268.1 K, m1 = 2	–	1047.1	2.831
268.1 K, m1 = 3	–	1067.8	3.191
268.1 K, m1 = 4.5	–	1095.9	3.649
268.1 K, m1 = 6	–	1121.7	4.461
268.1 K, m1 = 8	–	1155.4	6.735
268.1 K, m1 = 11	–	1200.2	10.85
268.1 K, m1 = 14	–	1240.7	18.98
268.1 K, m1 = 17.8	–	1288.4	28.66
273.1 K, m1 = 0.5	–	1013.2	1.944
273.1 K, m1 = 1	–	1024.4	2.107
273.1 K, m1 = 2	–	1046.9	2.37
273.1 K, m1 = 3	–	1067.4	2.681
273.1 K, m1 = 4.5	–	1095	3.133
273.1 K, m1 = 6	–	1121.2	3.815
273.1 K, m1 = 8	–	1153.7	5.744
273.1 K, m1 = 11	–	1198.7	9.191
273.1 K, m1 = 14	–	1239.1	15.82
273.1 K, m1 = 17.8	–	1286.4	24.99
278.1 K, m1 = 0.5	2.61	–	1.663
278.1 K, m1 = 1	4.64	1024	1.784
278.1 K, m1 = 2	7.64	1046.3	2
278.1 K, m1 = 3	9.59	1066.4	2.266
278.1 K, m1 = 4.5	11.5	1094.1	2.69
278.1 K, m1 = 6	12	1119.8	3.258
278.1 K, m1 = 8	11.5	1152.6	4.899
278.1 K, m1 = 11	9.37	1197.1	7.784
278.1 K, m1 = 14	6.99	1237.4	13.17
278.1 K, m1 = 17.8	4.71	1284.2	21.79
283.1 K, m1 = 0.5	2.99	1012.5	1.424
283.1 K, m1 = 1	5.2	1023.3	1.518
283.1 K, m1 = 2	8.61	1045.3	1.701
283.1 K, m1 = 3	11	1065.4	1.936
283.1 K, m1 = 4.5	13	1092.8	2.303
283.1 K, m1 = 6	13.6	1118.8	2.777
283.1 K, m1 = 8	13.1	1151.4	4.17
283.1 K, m1 = 11	10.7	1195.6	6.579
283.1 K, m1 = 14	8.01	1235.8	10.97
283.1 K, m1 = 17.8	5.52	1282.2	19.66
288.15 K, m1 = 0.5	3.35	1011.6	1.243
288.15 K, m1 = 1	5.87	1022.2	1.346
288.15 K, m1 = 2	9.62	1044.1	1.502
288.15 K, m1 = 3	12.3	1064.3	1.729
288.15 K, m1 = 4.5	14.5	1091.5	2.034
288.15 K, m1 = 6	15.2	1117.4	2.452
288.15 K, m1 = 8	14.6	1149.8	3.602
288.15 K, m1 = 11	12.1	1194	5.63
288.15 K, m1 = 14	9.09	1234.1	9.142
288.15 K, m1 = 17.8	6.45	1280.2	17.14
293.15 K, m1 = 0.5	3.74	1010.8	1.087
293.15 K, m1 = 1	6.53	1021.4	1.16
293.15 K, m1 = 2	10.7	1043	1.308
293.15 K, m1 = 3	13.7	1063.1	1.495
293.15 K, m1 = 4.5	16.1	1090.5	1.777
293.15 K, m1 = 6	16.9	1116.1	2.131
293.15 K, m1 = 8	16.3	1148.5	3.199
293.15 K, m1 = 11	13.6	1192.5	4.898
293.15 K, m1 = 14	10.4	1232.6	7.966
293.15 K, m1 = 17.8	7.44	1278.3	14.89
298.15 K, m1 = 0.5	4.15	1009.4	0.97
298.15 K, m1 = 1	7.29	–	1.052
298.15 K, m1 = 2	12	1041.8	1.165
298.15 K, m1 = 3	15.2	1061.8	1.339
298.15 K, m1 = 4.5	17.7	1089.1	1.586
298.15 K, m1 = 6	18.7	1114.6	1.906
298.15 K, m1 = 8	17.9	1147	2.8
298.15 K, m1 = 11	15.1	1190.9	4.292
298.15 K, m1 = 14	11.7	1230.7	6.899
298.15 K, m1 = 17.8	8.5	1276.4	12.68
303.15 K, m1 = 0.5	4.58	1008.1	0.866
303.15 K, m1 = 1	8	1018.7	0.929
303.15 K, m1 = 2	13.2	–	1.047
303.15 K, m1 = 3	16.7	1060.3	1.239
303.15 K, m1 = 4.5	19.4	1087.7	1.422
303.15 K, m1 = 6	–	1113.1	1.713
303.15 K, m1 = 8	19.7	1145.4	2.486
303.15 K, m1 = 11	16.7	1189.3	3.812
303.15 K, m1 = 14	13.1	1228.9	6.073
303.15 K, m1 = 17.8	9.61	1274.6	11.54
308.15 K, m1 = 0.5	4.99	1006.6	0.782
308.15 K, m1 = 1	8.7	–	0.834
308.15 K, m1 = 2	14.4	1038.7	0.941
308.15 K, m1 = 3	18.2	1058.7	1.083
308.15 K, m1 = 4.5	–	1085.9	1.28
308.15 K, m1 = 6	–	1111.5	1.532
308.15 K, m1 = 8	–	1143.9	2.256
308.15 K, m1 = 11	18.3	1187.8	3.407
308.15 K, m1 = 14	14.5	1227.1	5.332
308.15 K, m1 = 17.8	10.9	1272.8	10.46
313.15 K, m1 = 0.5	5.43	1005.1	0.722
313.15 K, m1 = 1	9.45	1015.8	0.774
313.15 K, m1 = 2	15.6	–	0.866
313.15 K, m1 = 3	19.7	1056.9	0.977
313.15 K, m1 = 4.5	–	1084.4	1.177
313.15 K, m1 = 6	–	1110.1	1.406
313.15 K, m1 = 8	–	1142.3	2.071
313.15 K, m1 = 11	20	1186.1	3.091
313.15 K, m1 = 14	16	1225.3	4.812
313.15 K, m1 = 17.8	12.3	1270.7	9.741
318.15 K, m1 = 0.5	5.85	1003.5	0.668
318.15 K, m1 = 1	10.2	–	0.714
318.15 K, m1 = 2	16.8	1035.2	0.802
318.15 K, m1 = 3	–	1055.5	0.91
318.15 K, m1 = 4.5	–	1083	1.076
318.15 K, m1 = 6	–	1108.4	1.293
318.15 K, m1 = 8	–	1140.7	1.919
318.15 K, m1 = 11	–	1184.3	2.869
318.15 K, m1 = 14	17.5	1223.5	4.412
318.15 K, m1 = 17.8	13.6	1268.9	8.984
323.15 K, m1 = 0.5	6.28	1002.2	0.625
323.15 K, m1 = 1	11	1012.5	0.665
323.15 K, m1 = 2	18.1	1033.8	0.747
323.15 K, m1 = 3	–	–	0.859
323.15 K, m1 = 4.5	–	1081.1	1.003
323.15 K, m1 = 6	–	1106.4	1.194
323.15 K, m1 = 8	–	1138.8	1.742
323.15 K, m1 = 11	–	1182.6	2.69
323.15 K, m1 = 14	19.1	1221.8	4.123
323.15 K, m1 = 17.8	15.1	1266.9	8.265
